Reference: the CheMixHub drug solubility set

Assay: xn = mol fraction of the nth substance listed, in the solute-free solvent

Cc1[nH]c(=O)c(C#N)cc1-c1ccncc1 + CN(C)C=O + O
solubility (g/100 g solution)
Settings | 278.15 K | 283.15 K | 288.15 K | 293.15 K | 298.15 K | 303.15 K | 308.15 K | 313.15 K | 318.15 K | 323.15 K
x2 = 0.02666 | 0.00219 | 0.00258 | 0.00301 | 0.00349 | 0.00402 | 0.00455 | 0.00511 | 0.00573 | 0.0064 | 0.00714
x2 = 0.05806 | 0.00523 | 0.00608 | 0.00705 | 0.00812 | 0.00928 | 0.0104 | 0.0117 | 0.013 | 0.0144 | 0.016
x2 = 0.09556 | 0.00909 | 0.0105 | 0.0121 | 0.014 | 0.0159 | 0.0179 | 0.02 | 0.0222 | 0.0245 | 0.0271
x2 = 0.1412 | 0.0128 | 0.0148 | 0.0171 | 0.0197 | 0.0224 | 0.0253 | 0.0283 | 0.0314 | 0.0347 | 0.0384
x2 = 0.1978 | 0.0159 | 0.0184 | 0.0208 | 0.0242 | 0.028 | 0.0318 | 0.0357 | 0.0397 | 0.0439 | 0.0488
x2 = 0.27 | 0.0186 | 0.0214 | 0.0246 | 0.029 | 0.0328 | 0.0371 | 0.0419 | 0.047 | 0.0524 | 0.0585
x2 = 0.3652 | 0.0209 | 0.0244 | 0.028 | 0.0328 | 0.0376 | 0.043 | 0.0487 | 0.0547 | 0.0613 | 0.068
x2 = 0.4965 | 0.023 | 0.0268 | 0.0315 | 0.0364 | 0.0416 | 0.0476 | 0.0545 | 0.0615 | 0.0685 | 0.0771
x2 = 0.6893 | 0.0242 | 0.0285 | 0.033 | 0.0391 | 0.0448 | 0.0505 | 0.0577 | 0.0654 | 0.0732 | 0.0835
